The OligoGym collection
After the bases stand the sugars from the 5' end (letter, count) and the backbone: PS all phosphorothioate, else s phosphorothioate and o phosphodiester by linkage. Methylation of C is not given here. e = 2'-O-(2-methoxyethyl) (MOE); l = locked nucleic acid (LNA); k = constrained ethyl (cEt); d = 2'-deoxy (DNA)

Experiments:
APOL1 = conditions: ASO
SNHG14 = conditions: ASO
[1] = Mouse Primary Neuronal Cell, 0.005 µM

| Sequence | target mRNA inhibition (SNHG14; Human Neuronal Cell, 7.5 µM) [%] | also measured |
| --- | --- | --- |
| CAGTTTTGTAAGTGCA (sugars k3 d4 k3 e1 d5, PS) | – | target mRNA inhibition (APOL1; A431, 2 µM): 92% |
| TTTGTAAGTGCAACCA (sugars k2 d4 e3 k2 d5, PS) | – | target mRNA inhibition (APOL1; A431, 0.0156 µM): 23%; target mRNA inhibition (APOL1; A431, 0.0625 µM): 60%; target mRNA inhibition (APOL1; A431, 0.25 µM): 87%; target mRNA inhibition (APOL1; A431, 1 µM): 98%; target mRNA inhibition (APOL1; A431, 2 µM): 99% |
| TGTTCTAACTCTTGGG (sugars k4 d9 k3, PS) | – | target mRNA inhibition (APOL1; A431, 0.0625 µM): 75%; target mRNA inhibition (APOL1; A431, 0.25 µM): 88%; target mRNA inhibition (APOL1; A431, 1 µM): 94% |
| TTATGAAATTATTGGT (sugars k3 d4 k3 e1 d5, PS) | – | target mRNA inhibition (APOL1; A431, 2 µM): 85% |
| GTTCTAACTCTTGGGC (sugars kkkddddkekekdddd, PS) | – | target mRNA inhibition (APOL1; A431, 2 µM): 37% |
| TGTTATATTTGATCCT (sugars kkddddekekeddddd, PS) | – | target mRNA inhibition (APOL1; A431, 0.0156 µM): 17%; target mRNA inhibition (APOL1; A431, 0.0625 µM): 41%; target mRNA inhibition (APOL1; A431, 0.25 µM): 71%; target mRNA inhibition (APOL1; A431, 1 µM): 85%; target mRNA inhibition (APOL1; A431, 2 µM): 94% |
| TTATATTTGATCCTCA (sugars k3 d4 k3 e1 d5, PS) | – | target mRNA inhibition (APOL1; A431, 2 µM): 96% |
| GAAGCTTTAAACTCAG (sugars k4 d9 k3, PS) | – | target mRNA inhibition (APOL1; A431, 0.0625 µM): 41%; target mRNA inhibition (APOL1; A431, 0.25 µM): 65%; target mRNA inhibition (APOL1; A431, 1 µM): 82% |
| CACTTTATACCAGTGT (sugars kkddddekekeddddd, PS) | – | target mRNA inhibition (APOL1; A431, 2 µM): 0% |
| GGAATTATGGAATTGC (sugars kdddddkekekddddd, PS) | – | target mRNA inhibition (APOL1; A431, 2 µM): 92% |
| TTTATCAATATCTTCTCACT (sugars ldddddddddddddldldll, PS) | 53 | – |
| CTCTCCTCAAGATCAA (sugars l3 d10 l3, PS) | – | target mRNA inhibition (SNHG14; Human Neuronal Cell, 0.2 µM): 37%; target mRNA inhibition (SNHG14; Human Neuronal Cell, 1 µM): 49% |
| ATTTATTTCCATTTATTTTC (sugars lldldlddddddddldldll, PS) | 55 | – |
| GTTTCCATCTACTATTAA (sugars llldldddddddllddll, PS) | 28 | – |
| TCCATTTATTTCCATTTAT (sugars ldldlldddddddldddll, PS) | 55 | – |
| AAAATTATTTATACACCATC (sugars lldddldddddddldlllll, PS) | 55 | – |
| GTTTCCATCTACTATTAAT (sugars lddddlddddddllddlll, PS) | 59 | – |
| AAAGATCATTCTCAACAA (sugars ldddllddddddlldlll, PS) | 33 | – |
| GTTCTACTATACTTTCCT (sugars lddldlddddddddddll, PS) | 56 | – |
| ATTGATTCAATTCCCTT (sugars ldldldddddddlldll, PS) | 65 | – |
| TCTTTCCATTTATTTCCATT (sugars l2 d3 l1 d11 l3, PS) | 56 | – |
| TTCTACTATACTTTCCTCT (sugars ldddldddddddddlddll, PS) | 57 | – |

| Sequence | target mRNA inhibition (SNHG14; Human Neuronal Cell, 7.5 µM) [%] | also measured |
| --- | --- | --- |
| TACATCTCATACTTGCT (sugars l2 d11 l4, PS) | – | target mRNA inhibition (SNHG14; Human Neuronal Cell, 0.2 µM): -18%; target mRNA inhibition (SNHG14; Human Neuronal Cell, 1 µM): 2%; target mRNA inhibition (SNHG14; Human Neuronal Cell, 5 µM): 18%; target mRNA inhibition (SNHG14; [1]): 95% |
| TTTATCAATATCTTCTCACT (sugars lddddlddddddddddldll, PS) | 68 | – |
| TACTCTGCAATACACCA (sugars l1 d10 l1 d3 l2, PS) | 59 | – |
| AAAGATCATTCTCAACAA (sugars lddlldddddddldllll, PS) | 66 | – |
| CAACATTATTAACCACCTT (sugars l2 d10 l2 d3 l2, PS) | 43 | – |
| GAATTTCAACTACTAT (sugars l2 d10 l4, PS) | – | target mRNA inhibition (SNHG14; Human Neuronal Cell, 0.2 µM): 34%; target mRNA inhibition (SNHG14; Human Neuronal Cell, 1 µM): 45% |
| TTTATCAATATCTTCTCAC (sugars l4 d12 l3, PS) | 70 | – |
| TGTACTTACACATCTA (sugars l3 d10 l3, PS) | – | target mRNA inhibition (SNHG14; Human Neuronal Cell, 0.2 µM): 42%; target mRNA inhibition (SNHG14; Human Neuronal Cell, 1 µM): 34% |
| TACACTTAATTATACTTCCA (sugars ldlddllddddddlddddll, PS) | 59 | – |
| ACTAATGCAATAACCC (sugars l3 d10 l3, PS) | – | target mRNA inhibition (SNHG14; Human Neuronal Cell, 0.2 µM): 45%; target mRNA inhibition (SNHG14; Human Neuronal Cell, 1 µM): 28% |
| AGCTTTTAACCAGAGTGG (sugars l1 d14 l3, PS) | 66 | – |
| TTACACTTAATTATACTTCC (sugars ldldldldddddddddldll, PS) | 65 | – |
| TCACTTTCCAGATATCA (sugars l4 d11 l2, PS) | – | target mRNA inhibition (SNHG14; Human Neuronal Cell, 0.2 µM): 17%; target mRNA inhibition (SNHG14; Human Neuronal Cell, 1 µM): 5%; target mRNA inhibition (SNHG14; Human Neuronal Cell, 5 µM): 15%; target mRNA inhibition (SNHG14; [1]): 92% |
| TTTCCATTTATTTCCATTT (sugars l2 d2 l2 d11 l2, PS) | 59 | – |
| GATCATTCTCAACAATTA (sugars l2 d1 l2 d10 l3, PS) | 57 | – |
| TAAAATTATTTATACACCA (sugars l2 d3 l1 d7 l6, PS) | 47 | – |
| TTATAGCCATTCTATCT (sugars lldldddddddldddll, PS) | 59 | – |
| TTTATCAATATCTTCTCA (sugars lllldldddddddlddll, PS) | 62 | – |
| TTATAGCCATTCTATCT (sugars l3 d10 l1 d1 l2, PS) | 59 | – |
| TCTGTATACACCATCCC (sugars l2 d10 l1 d2 l2, PS) | 61 | – |
| TTATTTCCATTTATTTTCA (sugars lddlldddddddldldlll, PS) | 69 | – |
| TACTCTGCAATACACCA (sugars l2 d10 l2 d1 l2, PS) | 60 | – |

| Sequence | target mRNA inhibition (SNHG14; Human Neuronal Cell, 7.5 µM) [%] | also measured |
| --- | --- | --- |
| AACAACTCATGCCACA (sugars l2 d10 l4, PS) | – | target mRNA inhibition (SNHG14; Human Neuronal Cell, 0.2 µM): 53%; target mRNA inhibition (SNHG14; Human Neuronal Cell, 1 µM): 59% |
| CAAAGATCATTCTCAAC (sugars l5 d6 l1 d1 l4, PS) | 22 | – |
| ATCTTTCCATTTATTTCCA (sugars lddlddddddddddlddll, PS) | 44 | – |
| GCACATTCTTTCTATAC (sugars ldlllddddddllddll, PS) | 34 | – |
| ATCTTTCCATTTATTTCCAT (sugars l1 d16 l3, PS) | 15 | – |
| GCACATTCTTTCTATAC (sugars l3 d11 l3, PS) | – | target mRNA inhibition (SNHG14; Human Neuronal Cell, 0.2 µM): 39%; target mRNA inhibition (SNHG14; Human Neuronal Cell, 1 µM): 59% |
| ACTCTGCAATACACCAA (sugars llddlddddddldldll, PS) | 33 | – |
| CAAAGATCATTCTCAACA (sugars l3 d1 l2 d10 l2, PS) | 61 | – |
| CATCATATTGAACCAA (sugars l2 d10 l4, PS) | – | target mRNA inhibition (SNHG14; Human Neuronal Cell, 0.2 µM): 52%; target mRNA inhibition (SNHG14; Human Neuronal Cell, 1 µM): 63% |
| TGAAAATCTCAACTACCAT (sugars l1 d3 l2 d10 l3, PS) | 43 | – |
| TACTATCTTTGACATTC (sugars l4 d11 l2, PS) | – | target mRNA inhibition (SNHG14; Human Neuronal Cell, 0.2 µM): 48%; target mRNA inhibition (SNHG14; Human Neuronal Cell, 1 µM): 59% |
| TCCATTTATTTCCATTTATT (sugars l2 d11 l2 d3 l2, PS) | 58 | – |
| AAATTATTTATACACCATCA (sugars ldlddldddddddldlldll, PS) | 60 | – |
| GCAACATTATTAACCACCT (sugars lldddlddddddlddddll, PS) | 45 | – |
| CCTTTCATTAACATTTA (sugars l3 d11 l3, PS) | – | target mRNA inhibition (SNHG14; Human Neuronal Cell, 0.2 µM): 46%; target mRNA inhibition (SNHG14; Human Neuronal Cell, 1 µM): 52% |
| TATTGATTCAATTCCCT (sugars lldldddddddddldll, PS) | 69 | – |
| TTATACCTTTCTTTAACCCT (sugars ldlddddddddddlddddll, PS) | 60 | – |
| CTTTCCATTTATTTCCATT (sugars ldddddddddddldldlll, PS) | 66 | – |
| GCAACATTATTAACCACCT (sugars lddddlddddddldddlll, PS) | 42 | – |
| TTACACTTAATTATACTTCC (sugars ldddldldddddddllddll, PS) | 62 | – |
| TTATAGCCATTCTATCT (sugars ldlldddddddlddlll, PS) | 21 | – |
| CCATTTATTTCCATTTATTT (sugars lddlldldddddddddddll, PS) | 40 | – |

| Sequence | target mRNA inhibition (SNHG14; Human Neuronal Cell, 7.5 µM) [%] | also measured |
| --- | --- | --- |
| TATACACCATCATTATA (sugars l4 d11 l2, PS) | – | target mRNA inhibition (SNHG14; Human Neuronal Cell, 0.2 µM): 41%; target mRNA inhibition (SNHG14; Human Neuronal Cell, 1 µM): 60% |
| TTATACCTTTCTTTAACCCT (sugars ldddldldddddddldddll, PS) | 62 | – |
| TTGATTCAATTCCCTTA (sugars ldddlddddddldldll, PS) | 48 | – |
| GATCATTCTCAACAATT (sugars l5 d7 l1 d2 l2, PS) | 34 | – |
| TTTACACTTAATTATACTTC (sugars l6 d7 l1 d4 l2, PS) | 58 | – |
| TTATAGCCATTCTATCT (sugars l2 d10 l2 d1 l2, PS) | 56 | – |
| AGATCATTCTCAACAATT (sugars ldllllddddddldddll, PS) | 48 | – |
| ATATCCCTTGATTATCC (sugars l3 d11 l3, PS) | – | target mRNA inhibition (SNHG14; Human Neuronal Cell, 0.2 µM): 16%; target mRNA inhibition (SNHG14; Human Neuronal Cell, 1 µM): 18% |
| AAATTATTTATACACCATCA (sugars l1 d12 l3 d1 l3, PS) | 40 | – |
| GTTTCCATCTACTATTAAT (sugars ldldllddddddddddlll, PS) | 59 | – |
| TTATAGCCATTCTATCT (sugars l2 d11 l1 d1 l2, PS) | 56 | – |
| AAAATCTCAACTACCATTTT (sugars ldlddlddddddddldllll, PS) | 28 | – |
| CAGCTTTTAACCAGAGTGGC (sugars l1 d17 l2, PS) | 40 | – |
| TTTTATACCTTTCTTTAACC (sugars l1 d1 l2 d14 l2, PS) | 57 | – |
| TTATAGCCATTCTATCT (sugars lddldddddddldddll, PS) | 36 | – |
| TATCTCATTTACATTATT (sugars l4 d12 l2, PS) | – | target mRNA inhibition (SNHG14; Human Neuronal Cell, 0.2 µM): 27%; target mRNA inhibition (SNHG14; Human Neuronal Cell, 1 µM): 43% |
| TTATAGCCATTCTATCT (sugars ldlldddddddldddll, PS) | 43 | – |
| TACTCTGCAATACACC (sugars l1 d1 l1 d11 l2, PS) | 50 | – |
| AGTTCTACTATACTTTC (sugars l1 d2 l2 d8 l4, PS) | 57 | – |
| TTTATCAATATCTTCTCAC (sugars lddlllddddddddlddll, PS) | 63 | – |
| GATCATTCTCAACAATTAA (sugars lldddlddddddlldllll, PS) | 39 | – |
| CAGCTATTCAATAAAC (sugars l4 d10 l2, PS) | – | target mRNA inhibition (SNHG14; Human Neuronal Cell, 0.2 µM): 8%; target mRNA inhibition (SNHG14; Human Neuronal Cell, 1 µM): 7% |
